Consider 27 compounds from patent US11591326B2, “Inhibitors of protein arginine methyltransferase 5 (PRMT5), pharmaceutical products thereof, and methods thereof” (PHARMABLOCK SCIENCES (NANJING), INC., priority 2018, dated 2023).

The structures appear in SMILES notation. pIC50: −log10 of the molar value.

A word on the pIC50: it is the IC50 on a negative log10 scale, so that one unit is a factor of ten.

The assay addresses Human recombinant PRMT5 in complex with human recombinant MEP50 (Homo sapiens (Human), UniProt O14744). The experiment in a line: PRMT5/MEP50 AlphaLISA enzyme inhibitory assay. Type of assay: biochemical. Particulars: PRMT5/MEP50 25 nM, SAM 10 μM, Biotin-H4 peptide 30 nM. The text has this: Human recombinant PRMT5 in complex with human recombinant MEP50, co-expressed in an insect cell/baculovirus expression system was purchased from Reaction Biology (Malvern, Pa.). […] Anti-H4R3-Me AlphaLISA acceptor beads and Streptavidin labeled AlphaLISA donor beads were obtained from PerkinElmer (Waltham, Mass.). S-adenosylmethionine (SAM), Tween20, dimethylsulfoxide (DMSO), and Tris buffer were obtained from Sigma at the highest level of purity available.
General Procedure for PRMT5/MEP50 AlphaLISA Enzyme Inhibitory Assays: Assays were performed in the buffer consisting of 50 mM Tris, pH 8.5, 5 mM MgCl2, 50 mM NaCl with 0.01% Tween20 and 1 mM DTT added right before the assay. 2.5 μL of compound solution in the assay buffer with 4% DMSO and 5 μL of PRMT5/MRP50 complex/SAM mixture solution in the assay buffer which was pre-incubated for 30 minutes were added into a white low volume 384 well microtiter plate. This mixture solution was incubated for 15 minutes with gentle shaking at room temperature. Methyl transfer reaction was initiated by adding 2.5 μL of Biotin-H4 (1-21) peptide substrate solution in the assay buffer. Final concentrations of PRMT5/MEP50, SAM, Biotin-H4 peptide substrate, and DMSO were 25 nM, 10 μM, 30 nM, and 1%, respectively. The reaction was allowed to perform for 120 minutes in dark with gentle shaking at room temperature after which 5 μL of Anti-H4R3-Me AlphaLISA acceptor beads in detection buffer from the manufacturer was added into the reaction mixture followed by incubation for 60 minutes. 10 μL of Streptavidin labeled AlphaLISA donor beads in detection buffer was added into the mixture followed by 30 minute incubation. Final acceptor and donor beads concentrations were 10 μg/mL. Plates were read on an Envision multimode plate reader from PerkinElmer (Waltham Mass., USA) with an excitation wavelength of 680 nm and emission wavelength of 615 nm. IC50 values of inhibitors were obtained by fitting the fluorescence intensity vs inhibitor concentrations in a sigmoidal dose-response curve (variable slopes, four parameters) using Prism 7 (La Jolla, Calif.).

Chain of Human recombinant PRMT5 in complex with human recombinant MEP50 (O14744 whole entry): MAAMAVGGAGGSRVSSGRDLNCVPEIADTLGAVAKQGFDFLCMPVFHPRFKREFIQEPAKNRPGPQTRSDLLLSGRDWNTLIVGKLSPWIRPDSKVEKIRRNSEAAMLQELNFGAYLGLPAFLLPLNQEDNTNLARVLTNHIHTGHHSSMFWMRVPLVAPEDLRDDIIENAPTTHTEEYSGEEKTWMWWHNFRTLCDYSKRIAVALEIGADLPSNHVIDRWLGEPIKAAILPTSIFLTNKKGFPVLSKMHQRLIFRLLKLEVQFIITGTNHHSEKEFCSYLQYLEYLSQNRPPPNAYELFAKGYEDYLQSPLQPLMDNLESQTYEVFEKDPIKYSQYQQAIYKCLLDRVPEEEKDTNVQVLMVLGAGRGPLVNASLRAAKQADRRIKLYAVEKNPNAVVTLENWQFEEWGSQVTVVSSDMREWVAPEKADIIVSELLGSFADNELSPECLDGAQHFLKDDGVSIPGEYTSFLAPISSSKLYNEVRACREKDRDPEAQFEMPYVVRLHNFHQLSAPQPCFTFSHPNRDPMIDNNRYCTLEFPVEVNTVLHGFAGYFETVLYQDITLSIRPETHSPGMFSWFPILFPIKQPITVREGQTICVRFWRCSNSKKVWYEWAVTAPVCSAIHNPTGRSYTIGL
Chain of Human recombinant PRMT5 in complex with human recombinant MEP50 (Q9BQA1 whole entry partner): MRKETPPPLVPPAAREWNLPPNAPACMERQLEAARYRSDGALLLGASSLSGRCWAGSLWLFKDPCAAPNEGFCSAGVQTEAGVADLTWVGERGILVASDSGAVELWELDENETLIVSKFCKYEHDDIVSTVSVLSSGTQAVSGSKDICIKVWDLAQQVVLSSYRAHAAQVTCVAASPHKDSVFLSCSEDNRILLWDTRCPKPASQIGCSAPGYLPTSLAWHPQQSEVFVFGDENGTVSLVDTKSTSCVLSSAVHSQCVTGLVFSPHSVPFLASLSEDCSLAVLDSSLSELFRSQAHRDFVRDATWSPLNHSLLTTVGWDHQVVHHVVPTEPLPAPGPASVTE

As to `CC1Cc2ccc(NC3COC3)cc2C(=O)N1CC(O)CN1CCc2ccccc2C1` (stereo not drawn) [Compound 21, 2-(3-(3,4-dihydroisoquinolin-2(1H)-yl)-2-hydroxypropyl)-3-methyl-7-(oxetan-3-ylamino)-3,4-dihydroisoquinolin-1(2H)-one], the pIC50 was 6.32.

Turning to `O=C1c2cc(Nc3cnn(C4COC4)c3)ccc2CCN1CC(O)CN1CCc2ccccc2C1` (stereo not drawn) [Compound 22, 2-(3-(3,4-dihydroisoquinolin-2(1H)-yl)-2-hydroxypropyl)-7-((1-(oxetan-3-yl)-1H-pyrazol-4-yl)amino)-3,4-dihydroisoquinolin-1(2H)-one], the negative logarithm of the IC50 (pIC50) was 7.68.

On to `Cn1ccc(Nc2ccc3c(c2)C(=O)N(CC(O)CN2CCc4ccccc4C2)CC3)n1` (stereo not drawn) [Compound 23, 2-(3-(3,4-dihydroisoquinolin-2(1H)-yl)-2-hydroxypropyl)-7-((1-methyl-1H-pyrazol-3-yl)amino)-3,4-dihydroisoquinolin-1(2H)-one], for which the negative logarithm of the IC50 (pIC50) is 7.21.

As to `CC(=O)N1CCC(Nc2ccc3c(c2)C(=O)N(C[C@@H](O)CN2CCc4ccccc4C2)CC3)CC1` [Compound 24b, (S)-7-((1-acetylpiperidin-4-yl)amino)-2-(3-(3,4-dihydroisoquinolin-2(1H)-yl)-2-hydroxypropyl)-3,4-dihydroisoquinolin-1(2H)-one], the pIC50 is 7.72.

For the compound `O=C1c2cc(Nc3cnn(C4CCOCC4)c3)ccc2CCN1CC(O)CN1CCc2ccccc2C1` (stereo not drawn) [Compound 25, 2-(3-(3,4-dihydroisoquinolin-2(1H)-yl)-2-hydroxypropyl)-7-((1-(tetrahydro-2H-pyran-4-yl)-1H-pyrazol-4-yl)amino)-3,4-dihydroisoquinolin-1(2H)-one], the pIC50 was 8.00.

As for `Cn1cc(Nc2cc3c(cc2Cl)CCN(CC(O)CN2CCc4ccccc4C2)C3=O)cn1` (stereo not drawn) [Compound 26, 6-chloro-2-(3-(3,4-dihydroisoquinolin-2(1H)-yl)-2-hydroxypropyl)-7-((1-methyl-1H-pyrazol-4-yl)amino)-3,4-dihydroisoquinolin-1(2H)-one], the pIC50 was 6.31.

As to `Cn1ccc(Nc2ccc3c(c2)C(=O)N(CC(O)CN2CCc4ccccc4C2)CC3)cc1=O` (stereo not drawn) [Compound 27, 2-(3-(3,4-dihydroisoquinolin-2(1H)-yl)-2-hydroxypropyl)-7-((1-methyl-2-oxo-1,2-dihydropyridin-4-yl)amino)-3,4-dihydroisoquinolin-1(2H)-one], the pIC50 is 7.68.

In the case of `O=C1c2cc(Nc3ccnnc3)ccc2CCN1CC(O)CN1CCc2ccccc2C1` (stereo not drawn) [Compound 28], the pIC50 was 7.94.

Regarding `O=C1c2cc(Nc3ccnnc3)ccc2CCN1C[C@@H](O)CN1CCc2ccccc2C1` [Compound 28b, (S)-2-(3-(3,4-dihydroisoquinolin-2(1H)-yl)-2-hydroxypropyl)-7-(pyridazin-4-ylamino)-3,4-dihydroisoquinolin-1(2H)-one], the negative logarithm of the IC50 (pIC50) was 6.53.

On to `Cn1cc(Nc2ccc3c(c2)C(=O)N(CC(O)CN2CCc4ccccc4C2)CCO3)cn1` (stereo not drawn) [Compound 29], for which the negative logarithm of the IC50 (pIC50) was 7.41.

Regarding `Cn1cc(Nc2ccc3c(c2)C(=O)N(C[C@@H](O)CN2CCc4ccccc4C2)CCO3)cn1` [Compound 29b, (S)-4-(3-(3,4-dihydroisoquinolin-2(1H)-yl)-2-hydroxypropyl)-7-((1-methyl-1H-pyrazol-4-yl)amino)-3,4-dihydrobenzo[f][1,4]oxazepin-5(2H)-one], the negative-log IC50 (pIC50) was 6.90.

Turning to `O=C1c2cc(Nc3ccnnc3)ccc2OCCN1C[C@@H](O)CN1CCc2ccccc2C1` [Compound 30b, (S)-4-(3-(3,4-dihydroisoquinolin-2(1H)-yl)-2-hydroxypropyl)-7-(pyridazin-4-ylamino)-3,4-dihydrobenzo[f][1,4]oxazepin-5(2H)-one], the pIC50 is 7.44.

Turning to `O=c1c2cc(Nc3ccnnc3)ccc2ncn1CC(O)CN1CCc2ccccc2C1` (stereo not drawn) [Compound 31, 3-(3-(3,4-dihydroisoquinolin-2(1H)-yl)-2-hydroxypropyl)-6-(pyridazin-4-ylamino)quinazolin-4(3H)-one], the pIC50 was 6.75.

As to `O=c1c2cc(Nc3ccnnc3)ccc2ccn1CC(O)CN1CCc2ccccc2C1` (stereo not drawn) [Compound 32, 2-(3-(3,4-dihydroisoquinolin-2(1H)-yl)-2-hydroxypropyl)-7-(pyridazin-4-ylamino)isoquinolin-1(2H)-one], the pIC50 is 7.43.

As for `O=c1c2cc(Nc3ccnnc3)ccc2cnn1CC(O)CN1CCc2ccccc2C1` (stereo not drawn) [Compound 33, 2-(3-(3,4-dihydroisoquinolin-2(1H)-yl)-2-hydroxypropyl)-7-(pyridazin-4-ylamino)phthalazin-1(2H)-one], the pIC50 was 7.65.

In the case of `CC1(C)CN(CC(O)CN2CCc3ccccc3C2)C(=O)c2cc(Nc3ccnnc3)ccc21` (stereo not drawn) [Compound 34, 2-(3-(3,4-dihydroisoquinolin-2(1H)-yl)-2-hydroxypropyl)-4,4-dimethyl-7-(pyridazin-4-ylamino)-3,4-dihydroisoquinolin-1(2H)-one], the pIC50 is 7.80.

As for `O=C1c2cc(Nc3ccnnc3)ccc2C2(CC2)CN1CC(O)CN1CCc2ccccc2C1` (stereo not drawn) [Compound 35, 2′-(3-(3,4-dihydroisoquinolin-2(1H)-yl)-2-hydroxypropyl)-7′-(pyridazin-4-ylamino)-2′,3′-dihydro-1′H-spiro[cyclopropane-1,4′-isoquinolin]-1′-one], the pIC50 was 8.21.

For the compound `O=C1c2cc(Nc3cncnc3)ccc2OCCN1C[C@H](O)CN1CCc2ccccc2C1` [Compound 36, (R)-4-(3-(3,4-dihydroisoquinolin-2(1H)-yl)-2-hydroxypropyl)-7-(pyrimidin-5-ylamino)-3,4-dihydrobenzo[f][1,4]oxazepin-5(2H)-one], the pIC50 is 7.99.

Take `O=C1c2cc(Nc3ccncn3)ccc2OCCN1C[C@H](O)CN1CCc2ccccc2C1` [Compound 37, (R)-4-(3-(3,4-dihydroisoquinolin-2(1H)-yl)-2-hydroxypropyl)-7-(pyrimidin-4-ylamino)-3,4-dihydrobenzo[f][1,4]oxazepin-5(2H)-one]: the pIC50 is 8.00.

Take `O=C1c2cc(Nc3cnccn3)ccc2OCCN1C[C@H](O)CN1CCc2ccccc2C1` [Compound 38, (R)-4-(3-(3,4-dihydroisoquinolin-2(1H)-yl)-2-hydroxypropyl)-7-(pyrazin-2-ylamino)-3,4-dihydrobenzo[f][1,4]oxazepin-5(2H)-one]: the pIC50 is 7.87.

For `O=C1c2cc(Nc3cccnn3)ccc2OCCN1C[C@H](O)CN1CCc2ccccc2C1` [Compound 39, (R)-4-(3-(3,4-dihydroisoquinolin-2(1H)-yl)-2-hydroxypropyl)-7-(pyridazin-3-ylamino)-3,4-dihydrobenzo[f][1,4]oxazepin-5(2H)-one], the negative-log IC50 (pIC50) was 7.65.

Consider `Cn1ccc(Nc2ccc3c(c2)C(=O)N(C[C@H](O)CN2CCc4ccccc4C2)CCO3)cc1=O` [Compound 40, (R)-4-(3-(3,4-dihydroisoquinolin-2(1H)-yl)-2-hydroxypropyl)-7-((1-methyl-2-oxo-1,2-dihydropyridin-4-yl)amino)-3,4-dihydrobenzo[f][1,4]oxazepin-5(2H)-one], for which the pIC50 is 7.91.

In the case of `Cn1nccc1Nc1ccc2c(c1)C(=O)N(C[C@H](O)CN1CCc3ccccc3C1)CCO2` [Compound 41, (R)-4-(3-(3,4-dihydroisoquinolin-2(1H)-yl)-2-hydroxypropyl)-7-((1-methyl-1H-pyrazol-5-yl)amino)-3,4-dihydrobenzo[f][1,4]oxazepin-5(2H)-one], the pIC50 was 8.00.

Take `Cc1nnc(Nc2ccc3c(c2)C(=O)N(C[C@H](O)CN2CCc4ccccc4C2)CCO3)o1` [Compound 42, (R)-4-(3-(3,4-dihydroisoquinolin-2(1H)-yl)-2-hydroxypropyl)-7-((5-methyl-1,3,4-oxadiazol-2-yl)amino)-3,4-dihydrobenzo[f][1,4]oxazepin-5(2H)-one]: the negative-log IC50 (pIC50) was 7.69.

For the compound `CN1CC(Nc2ccc3c(c2)C(=O)N(C[C@H](O)CN2CCc4ccccc4C2)CCO3)CC1=O` (stereo partly drawn) [Compound 43, 4-((R)-3-(3,4-dihydroisoquinolin-2(1H)-yl)-2-hydroxypropyl)-7-((1-methyl-5-oxopyrrolidin-3-yl)amino)-3,4-dihydrobenzo[f][1,4]oxazepin-5(2H)-one], the pIC50 is 7.29.

Regarding `CN1C(=O)CN(CC(O)CN2CCc3ccccc3C2)C(=O)c2cc(Nc3ccnnc3)ccc21` (stereo not drawn) [Compound 44, 4-(3-(3,4-dihydroisoquinolin-2(1H)-yl)-2-hydroxypropyl)-1-methyl-7-(pyridazin-4-ylamino)-3,4-dihydro-1H-benzo[e][1,4]diazepine-2,5-dione], the pIC50 is 8.16.

Regarding `CN1CCN(CC(O)CN2CCc3ccccc3C2)C(=O)c2cc(Nc3ccnnc3)ccc21` (stereo not drawn) [Compound 45, 4-(3-(3,4-dihydroisoquinolin-2(1H)-yl)-2-hydroxypropyl)-1-methyl-7-(pyridazin-4-ylamino)-1,2,3,4-tetrahydro-5H-benzo[e][1,4]diazepin-5-one], the pIC50 is 8.02.
